Experimental data as given in ChEMBL document CHEMBL4622880, “Anti-inflammatory Activity of Absinthin and Derivatives in Human Bronchoepithelial Cells” (J Nat Prod, 2020).
Activity calls are given as the source filed them. No cut-off for these calls is given here.

How the values were obtained:
[1] = target: T1, Taste receptor type 2 member 46 (Homo sapiens) (UniProt P59540); experiment: (§1) Agonist activity at human TAS2R46 expressed in human BEAS2B cells assessed as antioxidant activity by measuring reduction in PMA-induced superoxide anion generation at 10 uM preincubated for 1 hr followed by PMA addition and measured after 30 mins by cytochrome C reduction assay; assay type: cell-based
T1 sequence (whole entry): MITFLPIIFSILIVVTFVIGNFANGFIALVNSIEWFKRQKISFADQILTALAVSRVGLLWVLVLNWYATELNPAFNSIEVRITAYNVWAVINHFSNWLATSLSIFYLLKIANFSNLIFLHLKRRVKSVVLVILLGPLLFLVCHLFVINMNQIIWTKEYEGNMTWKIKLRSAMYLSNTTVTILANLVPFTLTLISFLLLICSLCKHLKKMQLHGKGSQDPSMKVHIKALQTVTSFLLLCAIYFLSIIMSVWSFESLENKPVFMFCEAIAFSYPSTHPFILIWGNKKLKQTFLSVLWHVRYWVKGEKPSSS

[2] = target: T1, Taste receptor type 2 member 46 (Homo sapiens); experiment: Agonist activity at human TAS2R46 expressed in human BEAS2B cells assessed as antiinflammatory activity by measuring reduction in PMA-induced IL-1beta gene expression at 10 uM incubated for 18 hrs in presence of 1 uM TAS2R46 antagonist 3HDC by qRT-PCR analysis; assay type: cell-based
[3] = target: T1, Taste receptor type 2 member 46 (Homo sapiens); experiment: Agonist activity at human TAS2R46 expressed in human BEAS2B cells assessed as antiinflammatory activity by measuring reduction in PMA-induced MUC5AC expression at 1 uM incubated for 18 hrs by TRITC-phalloidin/DAPI staining based analysis; assay type: cell-based
[4] = target: T1, Taste receptor type 2 member 46 (Homo sapiens); experiment: Agonist activity at human TAS2R46 expressed in human BEAS2B cells assessed as antiinflammatory activity by measuring reduction in PMA-induced iNOS mRNA level at 10 uM incubated for 18 hrs by qRT-PCR analysis; assay type: cell-based
[5] = target: T1, Taste receptor type 2 member 46 (Homo sapiens); experiment: as §1, with “mins in presence of 1 uM TAS2R46 antagonist 3HDC” for “mins”; assay type: cell-based
BEAS-2B [6] = experiment: Effect on basal superoxide anion production in human BEAS2B cells expressing human TAS2R46 at 10 uM after 1 hr by cytochrome C reduction assay; assay type: ADME, cell-based
[7] = target: T1, Taste receptor type 2 member 46 (Homo sapiens); experiment: Agonist activity at human TAS2R46 expressed in human BEAS2B cells assessed as antiinflammatory activity by measuring reduction in PMA-induced MUC5AC gene expression at 1 to 10 uM incubated for 18 hrs by qRT-PCR analysis; assay type: cell-based
[8] = target: T1, Taste receptor type 2 member 46 (Homo sapiens); experiment: Agonist activity at human TAS2R46 expressed in PMA-induced human BEAS2B cells assessed as antiinflammatory activity by measuring increase in IL-10 gene expression at 10 uM incubated for 18 hrs by qRT-PCR analysis; assay type: cell-based
[9] = target: T1, Taste receptor type 2 member 46 (Homo sapiens); experiment: Agonist activity at human TAS2R46 expressed in PMA-induced human BEAS2B cells assessed as antiinflammatory activity by measuring increase in IL-4 gene expression at 1 uM incubated for 18 hrs by qRT-PCR analysis; assay type: cell-based
[10] = target: T1, Taste receptor type 2 member 46 (Homo sapiens); experiment: Agonist activity at human TAS2R46 expressed in human BEAS2B cells assessed as antiinflammatory activity by measuring reduction in PMA-induced iNOS protein level at 10 uM incubated for 18 hrs by TRITC-phalloidin/DAPI staining based analysis; assay type: cell-based
[11] = target: T1, Taste receptor type 2 member 46 (Homo sapiens); experiment: Agonist activity at human TAS2R46 expressed in human BEAS2B cells assessed as effect on cytosolic calcium level at microM concentration by Fluo-2-AM dye based fluorescence assay; assay type: functional, cell-based
[12] = target: T1, Taste receptor type 2 member 46 (Homo sapiens); experiment: Agonist activity at human TAS2R46 expressed in human BEAS2B cells assessed as antiinflammatory activity by measuring reduction in PMA-induced IL-1beta gene expression at 10 uM incubated for 18 hrs by qRT-PCR analysis; assay type: cell-based
[13] = target: T1, Taste receptor type 2 member 46 (Homo sapiens); experiment: Agonist activity at human TAS2R46 expressed in PMA-induced human BEAS2B cells assessed as antiinflammatory activity by measuring increase in IL-10 gene expression at 1 uM incubated for 18 hrs by qRT-PCR analysis; assay type: cell-based
[14] = target: T1, Taste receptor type 2 member 46 (Homo sapiens); experiment: Agonist activity at human TAS2R46 expressed in human BEAS2B cells assessed as increase in cytosolic calcium level at 1 mM by Fluo-2-AM dye based fluorescence assay; assay type: functional, cell-based
[15] = target: T1, Taste receptor type 2 member 46 (Homo sapiens); experiment: Agonist activity at human TAS2R46 expressed in human BEAS2B cells assessed as antiinflammatory activity by measuring reduction in PMA-induced superoxide anion generation at 1 uM preincubated for 1 hr followed by PMA addition and measured after 30 mins by cytochrome C reduction assay; assay type: cell-based
[16] = target: T1, Taste receptor type 2 member 46 (Homo sapiens); experiment: Agonist activity at human TAS2R46 expressed in human BEAS2B cells assessed as antiinflammatory activity by measuring reduction in PMA-induced IL-1beta gene expression at 1 uM incubated for 18 hrs in presence of 1 uM TAS2R46 antagonist 3HDC by qRT-PCR analysis; assay type: cell-based
[17] = target: T1, Taste receptor type 2 member 46 (Homo sapiens); experiment: Agonist activity at human TAS2R46 expressed in human BEAS2B cells assessed as antiinflammatory activity by measuring reduction in PMA-induced IL-1beta gene expression at 1 uM incubated for 18 hrs by qRT-PCR analysis; assay type: cell-based
[18] = target: T1, Taste receptor type 2 member 46 (Homo sapiens); experiment: Agonist activity at human TAS2R46 expressed in human BEAS2B cells assessed as increase in cytosolic calcium level at 1 mM in presence of 100 uM TAS2R46 antagonist 3HDC by Fluo-2-AM dye based fluorescence assay; assay type: functional, cell-based
[19] = target: T1, Taste receptor type 2 member 46 (Homo sapiens); experiment: Agonist activity at human TAS2R46 expressed in PMA-induced human BEAS2B cells assessed as antiinflammatory activity by measuring increase in IL-4 gene expression at 10 uM incubated for 18 hrs by qRT-PCR analysis; assay type: cell-based
[20] = target: T1, Taste receptor type 2 member 46 (Homo sapiens); experiment: as §1, with “1” for “10”, “mins in presence of 1 uM TAS2R46 antagonist 3HDC” for “mins”; assay type: cell-based
BEAS-2B [21] = experiment: Effect on basal superoxide anion production in human BEAS2B cells expressing human TAS2R46 at 1 uM after 1 hr by cytochrome C reduction assay; assay type: ADME, cell-based
[22] = target: T1, Taste receptor type 2 member 46 (Homo sapiens); experiment: Agonist activity at human TAS2R46 expressed in human BEAS2B cells assessed as antiinflammatory activity by measuring reduction in PMA-induced iNOS protein level at 1 uM incubated for 18 hrs by TRITC-phalloidin/DAPI staining based analysis; assay type: cell-based
[23] = target: T1, Taste receptor type 2 member 46 (Homo sapiens); experiment: Agonist activity at human TAS2R46 expressed in human BEAS2B cells assessed as antiinflammatory activity by measuring reduction in PMA-induced iNOS mRNA level at 1 uM incubated for 18 hrs by qRT-PCR analysis; assay type: cell-based
[24] = target: T1, Taste receptor type 2 member 46 (Homo sapiens); experiment: Agonist activity at human TAS2R46 expressed in human BEAS2B cells assessed as increase in cytosolic calcium level at 1 mM in presence of […] antagonist 3HDC by Fluo-2-AM dye based fluorescence assay; assay type: functional, cell-based
[25] = target: T1, Taste receptor type 2 member 46 (Homo sapiens); experiment: Agonist activity at human TAS2R46 expressed in PMA-induced human BEAS2B cells assessed as antiinflammatory activity by measuring increase in IL-4 gene expression at 1 uM incubated for 18 hrs in presence of 1 uM TAS2R46 antagonist 3HDC by qRT-PCR analysis; assay type: cell-based
[26] = target: T1, Taste receptor type 2 member 46 (Homo sapiens); experiment: Agonist activity at human TAS2R46 expressed in PMA-induced human BEAS2B cells assessed as antiinflammatory activity by measuring increase in IL-10 gene expression at 1 uM incubated for 18 hrs in presence of 1 uM TAS2R46 antagonist 3HDC by qRT-PCR analysis; assay type: cell-based

SMILES | Activity [3] | Activity [9] | Activity [13] | Activity [14] | Activity [15] | Activity [16] | Activity [17] | Activity [18] | Activity [20] | Activity (BEAS-2B [21]) | Activity [22] | Activity [23] | Activity [24] | further results
CC1=C[C@@H]2[C@H]3[C@H](C(C)=C4[C@H]5OC(=O)[C@@H](C)[C@@H]5CC[C@](C)(O)[C@@H]43)[C@@]13[C@@H]2[C@@](C)(O)CC[C@H]1[C@H](C)C(=O)O[C@@H]13 | Active | inactive | inactive | Active | Active | inactive | Active | inactive | inactive | Non-Toxic | – | – | – | Activity [1]: Active; Activity [2]: inactive; Activity [4]: Active; Activity [5]: inactive; Activity (BEAS-2B [6]): Non-Toxic; Activity [7]: Active; Activity [8]: inactive; Activity [10]: Active; Activity [11]: inactive; Activity [12]: Active; Activity [19]: inactive
CC1=C2C=C([C@H](C)C(=O)OCCc3ccccc3)CC[C@](C)(O)[C@@H]2[C@H]2[C@@H]3CC4(C)O[C@@]5(C)CC[C@H]6[C@H](C)C(=O)O[C@@H]6C4([C@@H]35)[C@@H]12 | Active | inactive | inactive | Active | Active | Active | Active | inactive | inactive | Non-Toxic | Active | Active | – | –
CC1=C2C=C(C(C)NC(=O)N=[N+]=[N-])CC[C@](C)(O)[C@@H]2[C@H]2[C@@H]3CC4(C)O[C@@]5(C)CC[C@H]6[C@H](C)C(=O)O[C@@H]6C4([C@@H]35)[C@@H]12 (stereo not given in full) | Active | inactive | inactive | Active | Active | Active | Active | Active | inactive | Non-Toxic | Active | inactive | Active | –
COC(=O)[C@@H](C)C1=CC2=C(C)[C@H]3[C@H]([C@@H]4CC5(C)O[C@@]6(C)CC[C@H]7[C@H](C)C(=O)O[C@@H]7C35[C@@H]46)[C@H]2[C@@](C)(O)CC1 | Active | Active | Active | Active | Active | Active | Active | – | inactive | Non-Toxic | Active | Active | inactive | Activity [25]: inactive; Activity [26]: inactive
